From patent publication US11976083B2, “Inhibitors of peptidylarginine deiminases” (Gilead Sciences, Inc., priority 2020, dated 2024)

target: T1, human PAD4 (Homo sapiens, UniProt Q9UM07); assay: In vitro PAD4 BAEE biochemical assay; conditions: BAEE substrate 3 mM, 5 nM PAD4, 2 mM calcium chloride; geometric mean of multiple experiments
T1 construct: human PAD4 (NM_012387), A2-P663, was PCR amplified; His-SUMO (N, cleaved yes); made in house; host or cells: E. coli BL21(DE3)
Method in brief: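 PAD4 5 nM, CaCl2 2 mM, BAEE 3 mM final; 50 mM MOPS pH 7.6, 50 mM NaCl, 0.05% Tween-20, 2 mM DTT. Cpd + enzyme 30 min 25 °C; substrate 2 h 25 °C; EDTA stop; OPA detection 1 h. IC50 4-parameter fit.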

T1 sequence (Q9UM07 2-663): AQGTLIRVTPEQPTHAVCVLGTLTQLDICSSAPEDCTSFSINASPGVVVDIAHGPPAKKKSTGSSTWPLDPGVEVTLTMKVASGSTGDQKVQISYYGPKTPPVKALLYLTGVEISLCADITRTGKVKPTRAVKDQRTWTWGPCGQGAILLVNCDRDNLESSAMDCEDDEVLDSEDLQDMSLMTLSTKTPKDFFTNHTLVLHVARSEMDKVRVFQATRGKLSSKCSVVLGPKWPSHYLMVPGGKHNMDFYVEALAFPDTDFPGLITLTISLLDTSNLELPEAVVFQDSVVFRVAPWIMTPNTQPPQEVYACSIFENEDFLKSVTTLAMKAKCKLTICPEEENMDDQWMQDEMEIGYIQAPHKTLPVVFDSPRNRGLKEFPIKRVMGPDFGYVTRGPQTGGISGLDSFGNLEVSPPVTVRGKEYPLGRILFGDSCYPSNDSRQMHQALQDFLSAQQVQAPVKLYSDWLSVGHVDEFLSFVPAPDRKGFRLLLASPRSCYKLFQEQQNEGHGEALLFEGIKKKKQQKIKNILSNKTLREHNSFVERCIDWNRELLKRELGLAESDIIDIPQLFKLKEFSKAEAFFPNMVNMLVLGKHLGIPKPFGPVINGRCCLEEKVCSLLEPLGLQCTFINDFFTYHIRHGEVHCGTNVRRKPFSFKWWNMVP

Row | Compound | IC50 [nM]
1 | C[C@H]1NC(=O)[C@@H]2C[C@H]2CCCCCn2c(-c3nc4cc(C(=O)N5[C@H]6CC[C@@H]5[C@H](N)C6)cnc4n3C)cc3ccc1nc32 [Example 563, (2~{R},5~{R},7~{R})-14-[6-[(1~{R},2~{R},4~ {S})-2-amino-7-azabicyclo [2.2.1]heptane-7-carbonyl]-3-methyl-imidazo[4,5-b]pyridin-2-yl]-2-methyl-3,13,19-triazatetracyclo [11.5.2.0^{5,7}.0^{16,20}] icosa-1(19),14,16(20), 17-tetraen-4-one] | 26
2 | C[C@H]1NC(=O)[C@@H]2C[C@H]2CCCCCn2c(-c3nc4cc(C(=O)N[C@H]5CNCC[C@@H]5F)c(F)cc4n3C)cc3ccc1cc32 [Example 564, 6-fluoro-~{N}-[(3~{S},4~ {S})-4-fluoro-3-piperidyl]-1-methyl-2-[(2~{R},5~ {R},7~{R})-2-methyl-4-oxo-3,13-diazatetracyclo [11.5.2.0^{5,7}.0^{16,20}]icosa-1(19),14,16(20), 17-tetraen-14-yl] benzimidazole-5-carboxamide] | 24
3 | C[C@H]1NC(=O)C(C)(C)CCCCCCn2c(-c3nc4cc(C(=O)N[C@H]5CNCC[C@@H]5F)c(F)cc4n3C)cc3ccc1cc32 [Example 565, 6-fluoro-~{N}-[(3~{S}, 4~{S})-4-fluoro-3-piperidyl]-1-methyl-2-[(11~{R})-8,8,11-trimethyl-9-oxo-1,10-diazatricyclo[10.5.2.0^ {15,18}]nonadeca-12(19),13,15(18),16-tetraen-17-yl] benzimidazole-5-carboxamide] | 41
4 | C[C@H]1NC(=O)[C@@H]2CC2CCCC(F)(F)Cn2c(-c3nc4cc(C(=O)N5C[C@H]6CC[C@@H]5[C@@H]6N)c(F)c(F)c4n3C)cc3ccc1nc32 (stereo partly drawn) [Example 566, (2~{R},5~{R},7~{R})-14-[5-[(1~{R},4~{R},7~{R})-7-amino-2-azabicyclo [2.2.1]heptane-2-carbonyl]-6,7-difluoro-1-methyl-benzimidazol-2-yl]-11,11-difluoro-2-methyl-3,13,19-triazatetracyclo[11.5.2.0^ {5,7).0^{16,20}]icosa-1(19),14,16(20),17-tetraen-4-one] | 97
5 | C[C@H]1NC(=O)[C@@H]2C[C@H]2CCCCCn2c(-c3nc4cc(C(=O)N[C@@H]5CCCNC5)c(F)cc4n3C3CC3)cc3ccc1nc32 [Example 568, 1-cyclopropyl-6-fluoro-2-[(2~{R},5~{R},7~{R})-2-methyl-4-oxo-3,13,19-triazatetracyclo[11.5.2.0^ {5,7}.0^{16,20}]icosa-1(19), 14,16(20),17-tetraen-14-yl]- ~{N}-[(3~{R})-3-piperidyl]benzimidazole-5-carboxamide11,11-difluoro-2-methyl-4-oxo-3,13,19-] | 33
6 | C[C@H]1NC(=O)[C@@H]2C[C@H]2CCCCCn2c(-c3nc4cc(C(=O)N5CC6(CCCNC6)C5)c(F)cc4n3C3CC3)cc3ccc1nc32 [Example 569, (2~{R},5~{R},7~{R})-14-[1-cyclopropyl-5-(2,8-diazaspiro[3.5]nonane-2-carbonyl)-6-fluoro-benzimidazol-2-yl]-2-methyl-3,13,19-triazatetracyclo [11.5.2.0^{5,7}.0^ {16,20}]icosa-1(19),14, 16(20),17-tetraen-4-one] | 109
7 | COc1cc(C(=O)N2CC[C@@H](OC)[C@@H](N)C2)cc2nc(-c3cc4ccc5nc4n3CCCCCc3nn(C)nc3C(=O)N[C@@H]5C)n(C)c12 [Example 570, (2~{R})-16-[5-[(3~{S}, 4~{R})-3-amino-4-methoxy-piperidine-1-carbonyl]-7-methoxy-1-methyl-benzimidazol-2-yl]-2,7-dimethyl-3,6,7,8,15,21-hexazatetracyclo[13.5.2.0^ {5,9}.0^{18,22}] docosa-1(21),5,8,16,18(22), 19-hexaen-4-one] | 94
8 | C[C@H]1NC(=O)[C@@H]2C[C@H]2CCCCCn2c(-c3nc4cc(C(=O)N[C@H]5CNCC[C@@H]5F)c(F)cc4n3C3CC34CC4)cc3ccc1nc32 (stereo partly drawn) [Example 571, 6-fluoro-~{N}-[(3~ {S},4~{S})-4-fluoro-3-piperidyl]-2-[(2~{R}, 5~{R},7~{R})-2-methyl-4-oxo-3,13,19-triazatetracyclo[11.5.2.0^ {5,7}.0^{16,20}]icosa-1(19),14,16(20),17-tetraen-14-yl]-1-spiro [2.2]pentan-2-yl-benzimidazole-5-carboxamide] | 31
9 | CO[C@@H]1CCN(C(=O)c2cc3nc(-c4cc5ccc6nc5n4CCCCC[C@@H]4C[C@H]4C(=O)N[C@@H]6C)n(C4CC4)c3cc2F)C[C@@H]1N [Example 572, (2~{R},5~{R},7~{R})-14-[5-[(3~{S},4~{R})-3-amino-4-methoxy-piperidine-1-carbonyl]-1-cyclopropyl-6-fluoro-benzimidazol-2-yl]-2-methyl-3,13,19-triazatetracyclo [11.5.2.0^{5,7}.0^{16,20}] icosa-1(19),14,16(20), 17-tetraen-4-one] | 53
10 | C[C@H]1NC(=O)[C@@H]2C[C@H]2CCCCCn2c(-c3nc4cc(C(=O)N[C@H]5CNCC[C@@H]5F)cnc4n3C3CC3)cc3ccc1nc32 [Example 573, 3-cyclopropyl-~{N}-[(3~ {S},4~{S})-4-fluoro-3-piperidyl]-2-[(2~{R},5~ {R},7~{R})-2-methyl-4-oxo-3,13,19-triazatetracyclo [11.5.2.0^{5,7}.0^{16,20}]icosa-1(19),14,16(20), 17-tetraen-14-yl]imidazo [4,5-b]pyridine-6-carboxamide] | 23
11 | CO[C@@H]1CCN(C(=O)c2cnc3c(c2)nc(-c2cc4ccc5nc4n2CCCCC[C@@H]2C[C@H]2C(=O)N[C@@H]5C)n3C2CC2)C[C@@H]1N [Example 574, (2~{R},5~{R},7~{R})-14-[6-[(3~{S},4~{R})-3-amino-4-methoxy-piperidine-1-carbonyl]-3-cyclopropyl-imidazo [4,5-b]pyridin-2-yl]-2-methyl-3,13,19-triazatetracyclo [11.5.2.0^{5,7}.0^{16,20}] icosa-1(19),14,16(20),17-tetraen-4-one] | 117
12 | C[C@H]1NC(=O)[C@@H]2C[C@H]2CCCCCn2c(-c3nc4cc(C(=O)N[C@H]5CNC[C@H]6C[C@H]65)c(F)cc4n3C3CC3)cc3ccc1nc32 [Example 575, ~{N}-[(1~{S),5~{R},6~{R})-3-azabicyclo[4.1.0]heptan-5-yl]-1-cyclopropyl-6-fluoro-2-[(2~{R},5~{R},7~{R})-2-methyl-4-oxo-3,13,19-triazatetracyclo[11.5.2.0^ {5,7}.0^{16,20}]icosa-1(19),14,16(20),17-tetraen-14-yl]benzimidazole-5-carboxamide] | 26
13 | COc1cc(C(=O)N2CC[C@@H](OC)[C@@H](N)C2)cc2nc(-c3cc4ccc5cc4n3CCCCCc3nccnc3C(=O)N[C@@H]5C)n(C)c12 [Example 576, (2~{R})-17-[5-[(3~{S},4~ {R})-3-amino-4-methoxy-piperidine-1-carbonyl]-7-methoxy-1-methyl-benzimidazol-2-yl]-2-methyl-3,6,9,16-tetrazatetracyclo[14.5.2.0^ {5,10}.0^{19,23}] tricosa-1(22),5(10),6,8,17, 19(23),20-heptaen-4-one] | 68
14 | COc1cc(C(=O)N2CC[C@@H](OC(F)F)[C@@H](N)C2)cc2nc(-c3cc4ccc5cc4n3CCCCCc3nccnc3C(=O)N[C@@H]5C)n(C)c12 [Example 577, (2~{R})-17-[5-[(3~{S),4~{R})-3-amino-4-(difluoromethoxy)piperidine-1-carbonyl]-7-methoxy-1-methyl-benzimidazol-2-yl]-2-methyl-3,6,9,16-tetrazatetracyclo [14.5.2.0^{5,10}.0^{19, 23}]tricosa-1(22),5(10), 6,8,17,19(23),20-heptaen-4-one] | 84
15 | CO[C@@H]1CCN(C(=O)c2cc(F)c3c(c2)nc(-c2cc4ccc5nc4n2CCCCCc2nccnc2C(=O)N[C@@H]5C)n3C2CC2)C[C@@H]1N [Example 578, (2~{R})-17-[5-[(3~{S},4~ {R})-3-amino-4-methoxy-piperidine-1-carbonyl]-1-cyclopropyl-7-fluoro-benzimidazol-2-yl]-2-methyl-3,6,9,16,22-pentazatetracyclo[14.5.2.0^ {5,10}.0^{19,23}] tricosa-1(22),5(10),6,8,17, 19(23),20-heptaen-4-one] | 78
16 | CO[C@@H]1CCN(C(=O)c2cc(F)c3c(c2)nc(-c2cc4ccc5nc4n2CCCCCC2C[C@H]2C(=O)N[C@@H]5C)n3C2CC2)C[C@@H]1N (stereo partly drawn) [Example 579, (2~{R},5~{R},7~{R})-14-[5-[(3~{S),4~{R})-3-amino-4-methoxy-piperidine-1-carbonyl]-1-cyclopropyl-7-fluoro-benzimidazol-2-yl]-2-methyl-3,13,19-triazatetracyclo [11.5.2.0^{5,7}.0^{16,20}] icosa-1(19),14,16(20), 17-tetraen-4-one] | 50
17 | C[C@H]1NC(=O)[C@@H]2C[C@H]2CCCCCn2c(-c3nc4cc(C(=O)N[C@H]5CNCC[C@@H]5F)c(F)cn4c3C3CC3)cc3ccc1nc32 [Example 580, 3-cyclopropyl-6-fluoro-~ {N}-[(3~{S},4~{S})-4-fluoro-3-piperidyl]-2-[(2~{R},5~{R},7~{R})-2-methyl-4-oxo-3,13,19-triazatetracyclo[11.5.2.0^ {5,7}.0^{16,20}]icosa-1(19),14,16(20),17-tetraen-14-yl]imidazo[1,2-a] pyridine-7-carboxamide] | 24
18 | COc1cc(C(=O)N2[C@H]3CC[C@@H]2[C@H](N)[C@H](OC(F)F)C3)cc2nc(-c3cc4ccc5nc4n3CCCCC[C@@H]3C[C@H]3C(=O)N[C@@H]5C)n(C)c12 [Example 581, (2~{R},5~{R},7~{R})-14-[5-[(1~{R},2~{S},3~ {R},5~{S})-2-amino-3-(difluoromethoxy)-8-azabicyclo[3.2.1]octane-8-carbonyl]-7-methoxy-1-methyl-benzimidazol-2-yl]-2-methyl-3,13,19-triazatetracyclo[11.5.2.0^ {5,7}.0^{16,20}]icosa-1(19), 14,16(20),17-tetraen-4-one] | 176
